Data: publication PMC4270767 (PLoS ONE, 2014)
Several values for one entry are separate records, joined by “and”; a condition that tells them apart may be missing. Equal values may be shown once. Where a name gives a salt, the structure may show the parent alone. Read-outs that look alike come from different tables or passages of the source.

Columns and labels:
MtSerB2 [1] = biological target: T1, MtSerB2 (Mycobacterium tuberculosis, UniProt O53289); test: Effects of added amino acids on MtSerB2 phosphatase activity; assay type: biochemical, M. tuberculosis; conditions: for % activation or IC50: amino acids without effect
T1 sequence (O53289 whole entry): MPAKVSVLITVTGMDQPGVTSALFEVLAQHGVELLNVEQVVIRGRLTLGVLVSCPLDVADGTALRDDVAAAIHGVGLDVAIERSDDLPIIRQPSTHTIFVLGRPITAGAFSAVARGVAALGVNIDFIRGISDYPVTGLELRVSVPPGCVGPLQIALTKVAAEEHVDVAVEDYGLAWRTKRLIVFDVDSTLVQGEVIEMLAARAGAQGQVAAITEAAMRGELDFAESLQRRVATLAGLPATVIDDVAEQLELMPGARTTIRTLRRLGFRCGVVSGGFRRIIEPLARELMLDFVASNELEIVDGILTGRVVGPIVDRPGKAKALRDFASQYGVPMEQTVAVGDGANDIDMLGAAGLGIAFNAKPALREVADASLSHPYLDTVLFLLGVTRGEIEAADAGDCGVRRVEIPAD

MtSerB2 [2] = biological target: T1, MtSerB2; test: Inhibition of MtSerB2 hydrolysis of L-phosphoserine (malachite green); assay type: biochemical, M. tuberculosis
[3] = biological target: PSP domain of MtSerB2 (PSPD) (Mycobacterium tuberculosis, UniProt O53289); test: biochemical; set-up: species or system M. tuberculosis
Sequence of PSP domain of MtSerB2 (PSPD) (O53289 165-409 limits assumed): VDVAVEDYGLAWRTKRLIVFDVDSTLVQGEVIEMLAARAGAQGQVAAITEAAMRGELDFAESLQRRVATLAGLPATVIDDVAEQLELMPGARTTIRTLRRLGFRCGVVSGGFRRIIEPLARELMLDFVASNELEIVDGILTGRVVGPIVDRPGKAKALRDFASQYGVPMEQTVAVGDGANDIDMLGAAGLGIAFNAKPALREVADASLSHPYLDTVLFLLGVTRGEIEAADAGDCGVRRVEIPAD

MtSerB2 [4] = biological target: T1, MtSerB2; assay type: biochemical, M. tuberculosis; conditions: for effect of divalent cation on MtSerB2 activity: relative to Mg^2+
MtSerB2 [5] = biological target: T1, MtSerB2; conditions: Superdex S200, samples pre-equilibrated 1 h

N[C@@H](Cc1c[nH]c2ccccc12)C(=O)O [Trp]
Activation factor (MtSerB2 [1]): Inhibition
IC50 (MtSerB2 [1]): 322 ± 23 µM

NC(=O)C[C@H](N)C(=O)O [Asn]
Activation factor (MtSerB2 [1]): Non modulator
% activation or IC50 (MtSerB2 [1]): No Change

[F-].[Na+] [NaF, Sodium fluoride]
Imax (%) SerB2 (MtSerB2 [2]): 55%
Inhibition of phosphatase activity (MtSerB2 [2]): decrease of enzyme activity
IC50 (MtSerB2 [2]; read-out: IC50): ~3000 µM
IC50 (MtSerB2 [2]; read-out: IC50 (µM) SerB2): 3110 ± 155 µM
Imax (%) PSPD [3]: 72%
IC50 ([3]; read-out: IC50 (µM) PSPD): 2780 ± 216 µM

[Ni+2] [Ni^2+]
effect of divalent cation on MtSerB2 activity (MtSerB2 [4]): deactivates

N[C@@H](Cc1ccccc1)C(=O)O [Phe]
Activation factor (MtSerB2 [1]): Activation

NCC(=O)O [Gly]
Activation factor (MtSerB2 [1]): Inhibition
IC50 (MtSerB2 [1]): 381 ± 15 µM

CN(C)CCCN1c2ccccc2Sc2ccc(Cl)cc21 [Chlorpromazine, Chlorpromazine Hydrochloride]
Imax (%) SerB2 (MtSerB2 [2]): 70%
Inhibition of phosphatase activity (MtSerB2 [2]): inhibition at nanomolar concentrations
type of inhibition (MtSerB2 [2]): non-competitive
IC50 (MtSerB2 [2]; read-out: IC50 (µM) SerB2): 0.92 ± 0.1 µM
Imax (%) PSPD [3]: 95%
IC50 ([3]; IC50 (µM) PSPD): ~6.25 µM and 6.25 µM

[Ca+2].[Cl-].[Cl-] [Ca^2+]
effect of divalent cation on MtSerB2 activity (MtSerB2 [4]): deactivates

C[C@@H](O)[C@H](N)C(=O)O [Thr]
Activation factor (MtSerB2 [1]): Inhibition
IC50 (MtSerB2 [1]): 3460 ± 206 µM

C[N+](C)(C)CCOP(=O)([O-])OCC(O)CO (stereo not drawn) [α-GPC, α-Glycerophosphorylcholine]
Imax (%) SerB2 (MtSerB2 [2]): 35%
Imax (%) PSPD [3]: 31%

N=C(N)NCCC[C@H](N)C(=O)O [Arg]
Activation factor (MtSerB2 [1]): Inhibition
IC50 (MtSerB2 [1]): 632 ± 14 µM

C=C1[C@@H](O)[C@@H]2O[C@]3(CC[C@H](/C=C/[C@@H](C)[C@@H]4CC(C)=C[C@@]5(O[C@H](C[C@@](C)(O)C(=O)O)CC[C@H]5O)O4)O3)CC[C@H]2O[C@@H]1[C@@H](O)C[C@H](C)[C@H]1O[C@@]2(CCCCO2)CC[C@H]1C [Okadaic acid]
Imax (%) SerB2 (MtSerB2 [2]): 14%
Inhibition of phosphatase activity (MtSerB2 [2]): not able to inhibit the phosphatase activity
Imax (%) PSPD [3]: 22%

NCCCC[C@H](N)C(=O)O [Lys]
% activation (MtSerB2 [1]): 40%
Activation factor (MtSerB2 [1]): Activation

NC(CP(=O)(O)O)C(=O)O (racemic) [D,L- AP3, DL-2-Amino-3-Phosphonopropionic Acid]
Imax (%) SerB2 (MtSerB2 [2]): 22%
Imax (%) PSPD [3]: 19%

N[C@@H](Cc1ccc(O)cc1)C(=O)O [Tyr]
Activation factor (MtSerB2 [1]): Activation

O=C(O)[C@@H]1CCCN1 [Pro]
Activation factor (MtSerB2 [1]): Inhibition
IC50 (MtSerB2 [1]): > 5000 µM

CC[C@H](C)[C@H](N)C(=O)O [Ile]
Activation factor (MtSerB2 [1]): Non modulator
% activation or IC50 (MtSerB2 [1]): No Change

N[C@@H](CC(=O)O)C(=O)O [Asp]
Activation factor (MtSerB2 [1]): Inhibitor
IC50 (MtSerB2 [1]): 1620 ± 84 µM

CC(C)[C@H](N)C(=O)O [Val]
Activation factor (MtSerB2 [1]): Inhibition
IC50 (MtSerB2 [1]): 3660 ± 212 µM

NC(=O)CC[C@H](N)C(=O)O [Gln]
Activation factor (MtSerB2 [1]): Inhibition
IC50 (MtSerB2 [1]): 432 ± 13 µM

Sodium Vanadate
Imax (%) SerB2 (MtSerB2 [2]): 88%
Imax (%) PSPD [3]: 93%

[Co+2] [Co^2+]
effect of divalent cation on MtSerB2 activity (MtSerB2 [4]): deactivates

[Mn+2] [Mn^2+]
effect of divalent cation on MtSerB2 activity (MtSerB2 [4]): deactivates

CSCC[C@H](N)C(=O)O [Met]
Activation factor (MtSerB2 [1]): Non modulator
% activation or IC50 (MtSerB2 [1]): No Change

[Zn+2] [Zn^2+]
concentration level of inhibition (MtSerB2 [4]): inhibits the activity at nanomolar levels
effect of divalent cation on MtSerB2 activity (MtSerB2 [4]): deactivates

N[C@@H](CP(=O)(O)O)C(=O)O [L- AP3, L-2-amino-3-phosphonopropionate]
Imax (%) SerB2 (MtSerB2 [2]): 23%
Imax (%) PSPD [3]: 21%

C[N+](C)(C)CCOP(=O)(O)O [Phosphorylcholine]
Imax (%) SerB2 (MtSerB2 [2]): 10%
Imax (%) PSPD [3]: 14%

N[C@@H](CCC(=O)O)C(=O)O [Glu]
Activation factor (MtSerB2 [1]): Inhibition
IC50 (MtSerB2 [1]): 363 ± 20 µM

CC(C)C[C@H](N)C(=O)O [Leu]
Activation factor (MtSerB2 [1]): Non modulator
% activation or IC50 (MtSerB2 [1]): No Change

N[C@@H](CO)C(=O)O [L-serine]
IC50 (MtSerB2 [2]): 0.78 ± 0.08 µM
Imax (%) SerB2 (MtSerB2 [2]): 65%
Activation factor (MtSerB2 [1]): Inhibition
Imax (%) PSPD [3]: 70%
IC50 ([3]; IC50 (µM) PSPD): 824 ± 39 µM
molar ratio of L-serine and MtSerB2 at shift of dimer to tetramer (higher order oligomer) (MtSerB2 [5]): ~0.8

C[C@H](N)C(=O)O [Ala]
Activation factor (MtSerB2 [1]): Inhibition
IC50 (MtSerB2 [1]): 3830 ± 234 µM

N[C@@H](CS)C(=O)O [Cys]
Activation factor (MtSerB2 [1]): Non Modulator
% activation or IC50 (MtSerB2 [1]): No Change

N[C@@H](Cc1c[nH]cn1)C(=O)O [His]
Activation factor (MtSerB2 [1]): Inhibition
IC50 (MtSerB2 [1]): 4860 ± 218 µM

O=C(O)CN(CCN(CC(=O)O)CC(=O)O)CC(=O)O [EDTA]
Inhibition of phosphatase activity (MtSerB2 [2]): decrease of enzyme activity
